# According to US4098706A, “Lubricating agents for thermoplastic materials and process for preparing the same” (Sapchim-Fournier-Cimag, priority 1975, dated 1978):
# Like-named read-outs stand apart in the source and are kept apart here.
# How the values were obtained:
# [1] = test system: mice
# [2] = Tendency for bubbles to appear in the polyvinyl chlorides containing the lubricating agents; format: physicochemical
# Excerpt: It is known that a release of gaz during preparation of the resin and particularly at the moment of extrusion or blowing is a grave disadvantage when manufacturing objects such as bottles because it may lead to the formation of visible bubbles in the plastic.
# [3] = Extractibility of the lubricating agents from bottles by solvents simulating food and drink, 49° C; format: physicochemical
# Procedure: The lubricating agents according to the invention may be used to lubricate polymers which are intended for the manufacture of packaging and containers for food and drink and its was therefore necessary, in spite of their low toxicity, to determine their extractibility by various solvents simulating food and drink, namely water, ethanol-water 50/50, an aqueous solution of acetic acid (3%) and heptane.
# This study was carried out in accordance with the requirements of the Food and Drug Administration (U.S.A.).
# The extractions were performed in semi-rigid bottles, prepared with the resins given hereabove.
# The ratio of the volume of solvent to the surface of plastic material exposed to extraction was about […], taking into account the geometric characteristics of the bottles.
# Heating--: A thermostated oven for the non-inflammable solvents (water and acetic acid) A thermostated water-bath for the inflammable solvents (alcohol and heptane)
# This was, in each case, intentionally longer than that which would have given stable maximum values.
# The following periods of duration were in fact, observed:
# Acetic acid (3%) : 15 days
# Aqueous ethanol: 3 to 4 days
# The quantity of lubricating agent extracted was determined by thin layer chromatography, by comparison with a standard scale.
# A blank trial was carried out with control bottles containing no lubricating agent and a purely negative result was obtained.
# The amounts of lubricating agent determined are expressed in μg/ml of extraction solvent or, which is the same, per cm^2 of surface submitted to extraction.
# [4] = Formula 915, acetic acid (3%), 15 days
# [5] = Formula 915, aqueous ethanol, 3 to 4 days
# [6] = Formula 913, acetic acid (3%), 15 days
# [7] = Formula 913, aqueous ethanol, 3 to 4 days
# [8] = Formula 914, acetic acid (3%), 15 days
# [9] = Formula 914, aqueous ethanol, 3 to 4 days
smiles,measurement,setting,value
"CCCCCCCCCCCCCCCCCCCCCC(=O)OCCOCCOCCOC(=O)CCCCCCCCCCCCCCCCCCCCC [Compound 4, Triethyleneglycol dibehenate]",Toxic symptoms,"[1]; mouse, in vivo, po",none
"CCCCCCCCCCCCCCCCCCCCCC(=O)OCC(C)OC(=O)CCCCCCCCCCCCCCCCCCCCC (stereo not shown) [Compound 1, 1,2-propanediol dibehenate]",Observations (release of gas),[2],No release
same,Temperature at which bubbles appear,[2],250 °C
same,Amount of lubricating agent extracted,[3]; [4],0.13 µg/mL
same,Amount of lubricating agent extracted,[3]; [5],0.13 µg/mL
same,Amount of lubricating agent extracted,"[3]; Formula 915, heptane, 3 days",0.26 µg/mL
same,Amount of lubricating agent extracted,"[3]; Formula 915, water, 15 days",0.13 µg/mL
same,Toxic symptoms,"[1]; mouse, in vivo, po",none
"CCCCCCCCCCCCCCCCCCCCCC(=O)OCCSCCOC(=O)CCCCCCCCCCCCCCCCCCCCC [Compound 2, Thiodiglycol dibehenate]",Amount of lubricating agent extracted,[3]; [6],0.4 µg/mL
same,Amount of lubricating agent extracted,[3]; [7],0.6 µg/mL
same,Amount of lubricating agent extracted,"[3]; Formula 913, heptane, 3 days",1.3 µg/mL
same,Amount of lubricating agent extracted,"[3]; Formula 913, water, 15 days",0.13 µg/mL
same,Amount of lubricating agent extracted,[3]; [8],0.13 µg/mL
same,Amount of lubricating agent extracted,[3]; [9],0.13 µg/mL
same,Amount of lubricating agent extracted,"[3]; Formula 914, heptane, 3 days",0.8 µg/mL
same,Amount of lubricating agent extracted,"[3]; Formula 914, water, 15 days",0.13 µg/mL
same,Amount of lubricating agent extracted,[3]; [4],0.13 µg/mL
same,Amount of lubricating agent extracted,[3]; [5],0.13 µg/mL
same,Amount of lubricating agent extracted,"[3]; Formula 915, heptane, 3 days",0.6 µg/mL
same,Amount of lubricating agent extracted,"[3]; Formula 915, water, 15 days",0.13 µg/mL
same,Toxic symptoms,"[1]; oral, mice",none
"CCCCCCCCCCCCCCCCCCCCCC(=O)OCCCCOC(=O)CCCCCCCCCCCCCCCCCCCCC [Compound 7, 1,4-butanediol dibehenate]",Amount of lubricating agent extracted,[3]; [8],0.13 µg/mL
same,Amount of lubricating agent extracted,[3]; [9],0.13 µg/mL
same,Amount of lubricating agent extracted,"[3]; Formula 914, heptane, 3 days",0.8 µg/mL
same,Amount of lubricating agent extracted,"[3]; Formula 914, water, 15 days",0.13 µg/mL
same,Toxic symptoms,"[1]; mouse, in vivo, po",none
CCCCCCCCCCCCCCCCCCCCCC(=O)O [calcium behenate],Toxic symptoms,"[1]; mouse, in vivo, po",none
"CCCCCCCCCCCCCCCCCCCCCC(=O)OCC(COC(=O)CCCCCCCCCCCCCCCCCCCCC)(COC(=O)CCCCCCCCCCCCCCCCCCCCC)COC(=O)CCCCCCCCCCCCCCCCCCCCC [Compound 9, Pentaerythrite tetrabehenate]",Observations (release of gas),[2],Slight release
same,Temperature at which bubbles appear,[2],195 °C
same,Amount of lubricating agent extracted,[3]; [6],0.26 µg/mL
same,Amount of lubricating agent extracted,[3]; [7],0.13 µg/mL
same,Amount of lubricating agent extracted,"[3]; Formula 913, heptane, 3 days",0.26 µg/mL
same,Amount of lubricating agent extracted,"[3]; Formula 913, water, 15 days",0.13 µg/mL
same,Toxic symptoms,"[1]; mouse, in vivo, po",none
"CCCCCCCCCCCCCCCCCCCCCC(=O)OCC(COC(=O)CCCCCCCCCCCCCCCCCCCCC)OC(=O)CCCCCCCCCCCCCCCCCCCCC [Compound 8, Glyceryl tribehenate]",Observations (release of gas),[2],Slight release
same,Temperature at which bubbles appear,[2],230 °C
same,Toxic symptoms,"[1]; mouse, in vivo, po",none
